Earlier results, collected in EP3272348A1, “PHARMACEUTICAL COMPOSITION COMPRISING IDELALISIB” (LEK Pharmaceuticals d.d., priority 2016, dated 2018).
Like-named read-outs stand apart in the source and are kept apart here.

How the values were obtained:
[1] = not given; remark: listed apart in the source

## CC[C@H](Nc1ncnc2[nH]cnc12)c1nc2cccc(F)c2c(=O)n1-c1ccccc1 [Crystalline idelalisib, (S)-2-(I-(9H-purin-6-ylamino)propyl)-5-fluoro-3-phenyl-quinazolin-4(3H)-one]
pH 1.2
  solubility: soluble
pH 7
  solubility: not soluble
[1]
  permeability: high permeability
